Like-named read-outs stand apart in the source and are kept apart here.
Tests used:
[1] = metabolite profiling of plasma, urine, feces after intravenous dose; settings: rats 10 mg/kg intravenous 25HC3S
Description: (§1) Samples were profiled using high performance liquid chromatography with radiodetection and metabolic characterization was performed using mass spectrometry and tandem mass spectrometry analysis.

[2] = single oral dose pharmacokinetic study in healthy and NASH subjects; format: in vivo, human; settings: for AUC(0-t) / AUC(0-inf) / Cmax / half-life / Tmax / Vd/F: human, plasma, po
Description: The present Example was a randomized, dose ranging, single dose safety and pharmacokinetic study of 25HC3S administered to subjects with NASH and control healthy subjects. […] For each cohort, 10 subjects with NASH were enrolled which were further classified into cirrhotic and non-cirrhotic. Each subject received only one dose of study treatment. The second cohort was dosed after a review of safety and tolerability data from Cohort 1.

[3] = Sprague Dawley, rat, in vivo, iv, 10 mg/kg
Description: as §1

[4] = metabolite profiling of plasma and feces after oral dose; format: in vivo, rat; settings: rats 75 mg/kg oral
Excerpt: Radiolabeled components in plasma and feces extracts were profiled and identified using radio-high performance liquid chromatography (HPLC) and high performance liquid chromatography/mass spectrometry (HPLC/MS) methods.

[5] = tested on: DNMT1/3a/3b and 9 other epigenetic enzymes; experiment: epigenetic enzyme activity panel; format: biochemical
Excerpt: The major epigenetic regulation includes DNA and histone methylation, demethylation, acetylation, and deacetylation. The enzymes involved in the process are DNA and histone methyltransferases/demethylases, and acetyltransferases/deacetylases.

[6] = 50 mg single oral dose, Healthy
[7] = 200 mg single oral dose, Healthy

## desmosterol sulfate
[1]
  detection in plasma, urine, or feces samples: Neither desmosterol sulfate nor 25-hydroxycholesterol was detected

## C[C@H](CCCC(C)(C)O)[C@H]1CC[C@H]2[C@@H]3CC=C4C[C@@H](OS(=O)(=O)[O-])CC[C@]4(C)[C@H]3CC[C@]12C.[Na+] [25HC3S sodium, 25-hydroxycholesterol-3-sulfate sodium]
[2]; [6]
  CL/F, Geometric Mean: 118.11 L/h
  CL/F, Mean: 122.35 L/h
[2]; 50 mg single oral dose, NASH
  CL/F, Geometric Mean: 82.19 L/h
  CL/F, Mean: 85.29 L/h
[2]; [7]
  CL/F, Geometric Mean: 169.32 L/h
  CL/F, Mean: 171.25 L/h
[2]; 200 mg single oral dose, NASH
  CL/F, Geometric Mean: 141.66 L/h
  CL/F, Mean: 143.19 L/h
[2]; 50 mg, 50 mg single oral dose, Healthy, read-out: AUC0-12, Geometric Mean
  AUC(0-t): 497 ng·h/mL
[2]; 50 mg, 50 mg single oral dose, Healthy, read-out: AUC0-12, Mean
  AUC(0-t): 528 ng·h/mL
[2]; 50 mg, 50 mg single oral dose, Healthy, read-out: AUC0-last, Geometric Mean
  AUC(0-t): 450 ng·h/mL
[2]; 50 mg, 50 mg single oral dose, Healthy, read-out: AUC0-last, Mean
  AUC(0-t): 477 ng·h/mL
[2]; 50 mg, 50 mg single oral dose, Healthy, read-out: AUCinf, Geometric Mean
  AUC(0-inf): 423 ng·h/mL
[2]; 50 mg, 50 mg single oral dose, Healthy, read-out: AUCinf, Mean
  AUC(0-inf): 439 ng·h/mL
[2]; 50 mg, 50 mg single oral dose, Healthy, read-out: Cmax, Geometric Mean
  Cmax: 90.9 ng/mL
[2]; 50 mg, 50 mg single oral dose, Healthy, read-out: Cmax, Mean
  Cmax: 94 ng/mL
[2]; 50 mg, 50 mg single oral dose, Healthy, read-out: T1/2, Geometric Mean (converted)
  half-life: 1.89 h
[2]; 50 mg, 50 mg single oral dose, Healthy, read-out: T1/2, Mean (converted)
  half-life: 1.91 h
[2]; 50 mg, 50 mg single oral dose, Healthy, read-out: Tmax, Geometric Mean
  Tmax: 2.83 h
[2]; 50 mg, 50 mg single oral dose, Healthy, read-out: Tmax, Mean
  Tmax: 3.01 h
[2]; 50 mg, 50 mg single oral dose, Healthy, read-out: Vz/F, Geometric Mean
  Vd/F: 322 L
[2]; 50 mg, 50 mg single oral dose, Healthy, read-out: Vz/F, Mean
  Vd/F: 325 L
[2]; 50 mg, 50 mg single oral dose, NASH, read-out: AUC0-12, Geometric Mean
  AUC(0-t): 598 ng·h/mL
[2]; 50 mg, 50 mg single oral dose, NASH, read-out: AUC0-12, Mean
  AUC(0-t): 623 ng·h/mL
[2]; 50 mg, 50 mg single oral dose, NASH, read-out: AUC0-last, Geometric Mean
  AUC(0-t): 476 ng·h/mL
[2]; 50 mg, 50 mg single oral dose, NASH, read-out: AUC0-last, Mean
  AUC(0-t): 513 ng·h/mL
[2]; 50 mg, 50 mg single oral dose, NASH, read-out: AUCinf, Geometric Mean
  AUC(0-inf): 608 ng·h/mL
[2]; 50 mg, 50 mg single oral dose, NASH, read-out: AUCinf, Mean
  AUC(0-inf): 636 ng·h/mL
[2]; 50 mg, 50 mg single oral dose, NASH, read-out: Cmax, Geometric Mean
  Cmax: 108 ng/mL
[2]; 50 mg, 50 mg single oral dose, NASH, read-out: Cmax, Mean
  Cmax: 113 ng/mL
[2]; 50 mg, 50 mg single oral dose, NASH, read-out: T1/2, Geometric Mean (converted)
  half-life: 1.67 h
[2]; 50 mg, 50 mg single oral dose, NASH, read-out: T1/2, Mean (converted)
  half-life: 1.67 h
[2]; 50 mg, 50 mg single oral dose, NASH, read-out: Tmax, Geometric Mean
  Tmax: 2.31 h
[2]; 50 mg, 50 mg single oral dose, NASH, read-out: Tmax, Mean
  Tmax: 2.41 h
[2]; 50 mg, 50 mg single oral dose, NASH, read-out: Vz/F, Geometric Mean
  Vd/F: 198 L
[2]; 50 mg, 50 mg single oral dose, NASH, read-out: Vz/F, Mean
  Vd/F: 203 L
[2]; 200 mg, 200 mg single oral dose, Healthy, read-out: AUC0-12, Geometric Mean
  AUC(0-t): 1160 ng·h/mL
[2]; 200 mg, 200 mg single oral dose, Healthy, read-out: AUC0-12, Mean
  AUC(0-t): 1180 ng·h/mL
[2]; 200 mg, 200 mg single oral dose, Healthy, read-out: AUC0-last, Geometric Mean
  AUC(0-t): 1170 ng·h/mL
[2]; 200 mg, 200 mg single oral dose, Healthy, read-out: AUC0-last, Mean
  AUC(0-t): 1190 ng·h/mL
[2]; 200 mg, 200 mg single oral dose, Healthy, read-out: AUCinf, Geometric Mean
  AUC(0-inf): 1180 ng·h/mL
[2]; 200 mg, 200 mg single oral dose, Healthy, read-out: AUCinf, Mean
  AUC(0-inf): 1190 ng·h/mL
[2]; 200 mg, 200 mg single oral dose, Healthy, read-out: Cmax, Geometric Mean
  Cmax: 256 ng/mL
[2]; 200 mg, 200 mg single oral dose, Healthy, read-out: Cmax, Mean
  Cmax: 260 ng/mL
[2]; 200 mg, 200 mg single oral dose, Healthy, read-out: T1/2, Geometric Mean (converted)
  half-life: 1.72 h
[2]; 200 mg, 200 mg single oral dose, Healthy, read-out: T1/2, Mean (converted)
  half-life: 1.75 h
[2]; 200 mg, 200 mg single oral dose, Healthy, read-out: Tmax, Geometric Mean
  Tmax: 2.53 h
[2]; 200 mg, 200 mg single oral dose, Healthy, read-out: Tmax, Mean
  Tmax: 2.67 h
[2]; 200 mg, 200 mg single oral dose, Healthy, read-out: Vz/F, Geometric Mean
  Vd/F: 420 L
[2]; 200 mg, 200 mg single oral dose, Healthy, read-out: Vz/F, Mean
  Vd/F: 434 L
[2]; 200 mg, 200 mg single oral dose, NASH, read-out: AUC0-12, Geometric Mean
  AUC(0-t): 1500 ng·h/mL
[2]; 200 mg, 200 mg single oral dose, NASH, read-out: AUC0-12, Mean
  AUC(0-t): 1540 ng·h/mL
[2]; 200 mg, 200 mg single oral dose, NASH, read-out: AUC0-last, Geometric Mean
  AUC(0-t): 1540 ng·h/mL
[2]; 200 mg, 200 mg single oral dose, NASH, read-out: AUC0-last, Mean
  AUC(0-t): 1580 ng·h/mL
[2]; 200 mg, 200 mg single oral dose, NASH, read-out: AUCinf, Geometric Mean
  AUC(0-inf): 1410 ng·h/mL
[2]; 200 mg, 200 mg single oral dose, NASH, read-out: AUCinf, Mean
  AUC(0-inf): 1430 ng·h/mL
[2]; 200 mg, 200 mg single oral dose, NASH, read-out: Cmax, Geometric Mean
  Cmax: 319 ng/mL
[2]; 200 mg, 200 mg single oral dose, NASH, read-out: Cmax, Mean
  Cmax: 333 ng/mL
[2]; 200 mg, 200 mg single oral dose, NASH, read-out: T1/2, Geometric Mean (converted)
  half-life: 2.2 h
[2]; 200 mg, 200 mg single oral dose, NASH, read-out: T1/2, Mean (converted)
  half-life: 2.51 h
[2]; 200 mg, 200 mg single oral dose, NASH, read-out: Tmax, Geometric Mean
  Tmax: 2.65 h
[2]; 200 mg, 200 mg single oral dose, NASH, read-out: Tmax, Mean
  Tmax: 2.91 h
[2]; 200 mg, 200 mg single oral dose, NASH, read-out: Vz/F, Geometric Mean
  Vd/F: 449 L
[2]; 200 mg, 200 mg single oral dose, NASH, read-out: Vz/F, Mean
  Vd/F: 540 L

## C[C@H](CCCC(C)(C)O)[C@H]1CC[C@H]2[C@@H]3CC=C4C[C@@H](O)CC[C@]4(C)[C@H]3CC[C@]12C [25HC, 25-Hydroxycholesterol, reference compound]
[3]
  detection in plasma, urine, or feces samples: Neither desmosterol sulfate nor 25-hydroxycholesterol was detected
[4]; 2 hour post-dose
  relative observed intensity (ROI) in plasma: 37%
[4]; pools 0 to 168 hours
  % of total dose in feces: 1.9%

## CC(C)CCC[C@@H](C)[C@H]1CC[C@H]2[C@@H]3CC=C4C[C@@H](OS(=O)(=O)O)CC[C@]4(C)[C@H]3CC[C@]12C [Xol3S, Cholesterol 3-Sulfate]
[5]
  effect on enzymatic activities: did not significantly affect enzymatic activities

## C[C@@H](CO)CCC[C@@H](C)[C@H]1CC[C@H]2[C@@H]3CC=C4C[C@@H](O)CC[C@]4(C)[C@H]3CC[C@]12C [27HC, 27-Hydroxycholesterol]
[5]
  effect on enzymatic activities: no effect on other enzymes

## CC(C)CCC[C@@H](C)[C@H]1CC[C@H]2[C@@H]3CC=C4C[C@@H](O)CC[C@]4(C)[C@H]3CC[C@]12C [Xol, Cholesterol]
[5]
  effect on enzymatic activities: did not significantly affect enzymatic activities

Reference: US12642805B2, “Use of oxygenated cholesterol sulfates for treating at least one of insulin resistance, diabetes, and prediabetes” (Medicis Pharmaceutical Corporation, priority 2020, dated 2026)
